Data published in patent publication US20150071904A1, “COMPOSITIONS AND METHODS TO BOOST ENDOGENOUS ROS PRODUCTION FROM BACTERIA” (Trustees of Boston University, priority 2012, published 2015).

Key:
[1] = test system: Escherichia coli MG1655 wildtype cells; assay: Carboxin inhibitor experiments (CFU survival, alone and combined with H2O2 or ampicillin; dose response and synergy); type: cell-based
Description: Strains were grown aerobically from an initial inoculation of OD600=0.01 to OD600=0.16-0.20 in 250 mL baffled flasks filled to 1/10th the total volume and shaken at 300 rpm at 37° C. Time-zero samples were collected (200-400 μL), then 1 mL aliquots were transferred to 14 mL test tubes. Carboxin solubilized in 100% ethanol or ethanol alone was added to the tubes. […] Drug synergism was calculated using the Bliss Independence and Highest Single Agent models^52, 53. Specifically, the formula,
was used to calculate synergism with the Bliss Independence model. A and B are the effects of the two drugs in isolation, whereas, BICAB is the combined effect of the two drugs as predicted by the Bliss Independence model. If CAB, the experimentally-determined combined effect of the two drugs, is >BICAB, synergy is observed. In contrast, in the Highest Single Agent model, if CAB>max(A, B) synergy is observed. Since cell death was monitored, the quantitative effect of each compound was defined as the fractional reduction of the population, R=1−CFUt/CFU0, where CFUt is the number of CFUs measured after treatment, and CFU0 is the number of CFUs measured before treatment. R=1 indicates complete loss of the population, R=0 indicates a population in stasis, and R<0 indicates a growing population. […] The Bliss Independence model can be written as follows,
If A is a compound that reduces CFUs, such as ampicillin, its effect above the MIC will be 0≦A≦1, whereas if B is a compound that allows growth at all concentrations, its effect will be B<0 regardless of the concentration. Rearrangement of the above yields,
Since equation 3 yields BICAB/A<1 for all B<0 and 0<A<1, the Highest Single Agent model requires CAB/A>1 and the Bliss Independence model requires CAB/BICAB>1 for synergy, the Highest Single Agent model will always be a more strict synergy requirement under these conditions. […] Modeling Escherichia coli ROS Metabolism

[2] = cited from earlier work
[3] = test system: Escherichia coli MG1655 wildtype and single-gene deletion strains; assay: Antimicrobial sensitivity assays (CFU time course of deletion strains and wildtype treated with oxidants or antibiotics); type: cell-based; settings: 500 ng/mL gentamicin, FIG. 6C
Description: Escherichia coli MG1655 was used in this study. Genetic deletions of aceA, appB, atpC, cyoA, edd, fumB, fbaB, gdhA, gltB, gnd, mqo, nuoG, pfkB, pta, pykA, rpiB, sdhC, sucC, talB, tktB and zwf were transduced from the Keio single-gene deletion knockout library^63 into MG1655 using the P1 phage method, and confirmed with PCR. The media used for all experiments was M9 minimal media with 10 mM glucose as the sole carbon source or MOPS minimal media with 10 mM glucose (for the HyPer protein experiments).
Strains were grown aerobically from an initial inoculation of OD600=0.01 to OD600=0.16-0.20 in 250 mL baffled flasks filled to 1/10th the total volume and shaken at 300 rpm at 37° C. For menadione, H2O2, and ampicillin sensitivity assays, time-zero samples were collected (200-400 μL), then 1 mL aliquots were transferred to 14 mL test tubes, and appropriate volumes of menadione, H2O2, or ampicillin stock solutions, not in excess of 15 μL, were added to obtain the final concentrations (1 mM menadione, 5 mM H2O2, 7.5 μg/mL ampicillin, 100 ng/mL ofloxacin, 15 ng/mL ciprofloxacin, 500 ng/mL gentamicin, 10 μg/mL tetracycline, and 15 μg/mL chloramphenicol). […] Colony forming units were counted approximately 16-18 hours after plating.

In the case of `CC1(C)S[C@@H]2[C@H](NC(=O)[C@H](N)c3ccccc3)C(=O)N2[C@H]1C(=O)O` [ampicillin], the “ampicillin concentrations synergistic with carboxin” value ([1]; carboxin 250 μM or greater, Bliss Independence and Highest Single Agent models, FIG. 8) is reported as 7.5 to 10 µg/mL.

For `CC1=C(C(=O)Nc2ccccc2)SCCO1` [carboxin], the “suitability as antibiotic adjuvant, human toxicity” value [2] is given as “not suitable as an antibiotic adjuvant due to human toxicity issues”, the “sensitivity of wildtype cells to ampicillin with carboxin compared to ampicillin alone” value ([1]; 500 μM carboxin + 10 μg/mL ampicillin, FIG. 4F) is given as “significantly more sensitive” and the “sensitivity of wildtype cells to H2O2 with carboxin compared to H2O2 alone” value ([1]; 500 μM carboxin + 5 mM H2O2, FIG. 4E) is given as “increased sensitivity”. For the same molecule, the “effect of carboxin alone on growth of wildtype cells” value ([1]; carboxin alone, 500 μM, wildtype E. coli, FIGS. 4E, 4F) was “no effect on the growth” and the “lethality / growth of E. coli with carboxin” value ([1]; concentrations as high as 1 mM) was “non-lethal and allowed significant growth”.

For gentamicin, the “sensitivity of many target strains compared to wildtype” value ([3]; many predicted target deletion strains) was “decreased sensitivity” and the “sensitivity of ΔatpC strain compared to wildtype” value ([3]; ΔatpC E. coli) was “increased sensitivity”.
